Results as given in patent publication US20170292066A1, “Synthetic Acid Compositions Alternatives to Conventional Acids in the Oil and Gas Industry” (Fluid Energy Group Ltd., priority 2014, published 2017).

Assay: Biodegradability

Question: Which Biodegradability does the source give for `Cl.NC(N)=O` [urea hydrochloride, Urea Hydrochloride] here?
Answer: maintain the same biodegradability function
